Where a name gives a salt, the structure may show the parent alone.

Holding throughout (type): biochemical
For assay [1], the target named is T1, B-Raf(V599E) kinase (Homo sapiens, UniProt P15056, V600E). The experiment in a line: B-Raf(V599E) kinase assay B2 (construct 2 at 2 nM, 1 h pre-incubation). On the procedure: (§1) The test compounds were incubated with the reaction mixtureat 30° C. for 2 h. […] The reaction rate was calculated using the […] time frame. […] IC50 values were calculated from a series of percent inhibition values determined at a range of inhibitor concentrations using software routines as implemented in the GraphPad Prism software package.
Same as assay B1 except that (1) construct 2 was employed at a nominal concentration of 2 nM (2) the reaction was pre-incubated at 30° C. for 1 h prior to initiation with ATP (3) a reading time frame of 0.5 h to 1.5 h.
Target sequence in this assay (P15056 433-726 V600E): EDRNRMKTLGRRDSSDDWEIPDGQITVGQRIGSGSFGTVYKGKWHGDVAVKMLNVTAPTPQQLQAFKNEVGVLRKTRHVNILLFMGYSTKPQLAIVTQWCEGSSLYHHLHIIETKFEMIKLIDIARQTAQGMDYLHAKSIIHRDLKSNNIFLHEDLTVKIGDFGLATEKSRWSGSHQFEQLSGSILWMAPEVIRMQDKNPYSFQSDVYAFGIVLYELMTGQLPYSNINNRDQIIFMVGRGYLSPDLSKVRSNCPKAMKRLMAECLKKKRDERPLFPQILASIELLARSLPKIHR

For assay [2], the target named is phosphorylated p-38-alpha kinase (Homo sapiens, UniProt Q16539). The experiment in a line: P-38 alpha kinase assay P1 (coupled spectrophotometric, 2 h pre-incubation). The note with it: method P1 (2 h pre-incubation); read-out: P-38 Data.
phosphorylated p-38-alpha kinase, sequence (Q16539 1-360 isoform Q16539-2): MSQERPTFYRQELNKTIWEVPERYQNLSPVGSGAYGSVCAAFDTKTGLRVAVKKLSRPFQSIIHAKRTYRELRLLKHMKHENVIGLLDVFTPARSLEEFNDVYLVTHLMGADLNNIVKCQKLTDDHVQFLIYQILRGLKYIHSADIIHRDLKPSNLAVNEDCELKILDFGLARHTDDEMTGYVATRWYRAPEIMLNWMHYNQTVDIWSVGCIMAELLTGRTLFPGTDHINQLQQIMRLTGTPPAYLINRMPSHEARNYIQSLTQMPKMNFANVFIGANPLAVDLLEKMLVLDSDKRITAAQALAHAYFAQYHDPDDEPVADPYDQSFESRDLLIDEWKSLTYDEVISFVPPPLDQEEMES
Assay [3] has as its target T2, KDR kinase (Homo sapiens, UniProt P35968, DEL940-989/E990V). The experiment in a line: KDR kinase assay K1 (pyruvate kinase/lactate dehydrogenase coupled, spectrophotometric). The note with it: Method K1; read-out: KDR Data (IC50). The protocol: (§2) IC50 values were calculated from a series of percent inhibition values determined at a range of inhibitor concentrations using software routines as implemented in the GraphPad Prism software package.

Assay [4] deals with T1, B-Raf(V599E) kinase. The experiment in a line: B-Raf(V599E) kinase assay B1 (construct 1, MEK1 substrate, coupled spectrophotometric). On the procedure:
as §1
Target sequence in this assay (P15056 with tags, fused parts or gaps V600E): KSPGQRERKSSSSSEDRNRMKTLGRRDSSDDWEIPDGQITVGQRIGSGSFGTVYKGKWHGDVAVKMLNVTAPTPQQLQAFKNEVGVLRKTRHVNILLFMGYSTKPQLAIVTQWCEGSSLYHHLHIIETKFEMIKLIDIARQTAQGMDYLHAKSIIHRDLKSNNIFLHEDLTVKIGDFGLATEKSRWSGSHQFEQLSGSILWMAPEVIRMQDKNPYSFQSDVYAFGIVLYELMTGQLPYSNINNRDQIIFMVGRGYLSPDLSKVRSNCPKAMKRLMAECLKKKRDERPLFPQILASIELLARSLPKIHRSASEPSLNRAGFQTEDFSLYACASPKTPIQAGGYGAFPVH

Assay [5] has as its target T3, Abl kinase (Homo sapiens, UniProt P00519).
T3 sequence (P00519 229-512): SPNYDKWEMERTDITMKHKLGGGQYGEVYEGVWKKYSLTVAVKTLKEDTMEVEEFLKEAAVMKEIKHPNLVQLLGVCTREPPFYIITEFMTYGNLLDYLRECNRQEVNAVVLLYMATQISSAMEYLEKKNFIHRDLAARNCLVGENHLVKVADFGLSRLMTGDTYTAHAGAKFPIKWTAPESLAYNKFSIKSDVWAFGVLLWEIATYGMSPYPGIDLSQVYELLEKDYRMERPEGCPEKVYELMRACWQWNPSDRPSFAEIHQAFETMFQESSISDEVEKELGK
In words: Abl kinase assay A2 (as A1, 1.1 nM enzyme, 2 h pre-incubation, 0.5 mM ATP). The protocol:
as §2

In assay [6] the target is T3, Abl kinase. In words: Abl kinase assay A1 (pyruvate kinase/lactate dehydrogenase coupled, spectrophotometric). The note with it: Method A1; read-out: Abl Data (IC50). The protocol: as §2
Assay [7] concerns the target T2, KDR kinase. In words: KDR kinase assay K2 (as K1, 2.1 nM enzyme, 2 h pre-incubation, 1.0 mM ATP). On the procedure: as §2
Setting [8] is: Method A2, read-out: Abl Data (IC50).
The mark [9] stands for this setting: Method K2, read-out: KDR Data (IC50).

T2 sequence (P35968 with tags, fused parts or gaps DEL940-989/E990V): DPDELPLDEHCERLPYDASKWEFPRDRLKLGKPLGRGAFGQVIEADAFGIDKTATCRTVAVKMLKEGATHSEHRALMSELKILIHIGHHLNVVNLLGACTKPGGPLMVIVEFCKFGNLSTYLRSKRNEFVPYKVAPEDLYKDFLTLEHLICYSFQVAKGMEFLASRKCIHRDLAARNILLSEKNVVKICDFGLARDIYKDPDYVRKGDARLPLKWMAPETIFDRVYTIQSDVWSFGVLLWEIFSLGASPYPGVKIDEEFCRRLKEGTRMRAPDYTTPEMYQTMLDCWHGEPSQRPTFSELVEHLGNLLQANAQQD

`NC(=O)C1CCc2ccc(-n3nc(C4CCCC4)cc3NC(=O)Nc3cccc(Cl)c3Cl)cc21` (stereo not shown) [Example 305, 1-(1-(3-carbamoyl-2,3-dihydro-1H-inden-5-yl)-3-cyclopentyl-1H-pyrazol-5-yl)-3-(2,3-dichlorophenyl)urea]: the IC50 against B-Raf(V599E) kinase [1] came to 788 nM; in assay [2], 19 nM.
Turning to `CC(C)(C)c1cc(NC(=O)Nc2cccc(Cl)c2Cl)n(-c2ccc3c(c2)CCNC3)n1` [Example 138, 1-(3-t-butyl-1-(1,2,3,4-tetrahydroisoquinolin-6-yl)-1H-pyrazol-5-yl)-3-(2,3-dichlorophenyl)urea], the IC50 at KDR kinase [3] amounted to 300 nM; on B-Raf(V599E) kinase [4], 3.2 nM; in assay [2], 140 nM; at Abl kinase [5] (setting [8]), 100 nM.
For the compound `CC(C)(C)c1cc(NC(=O)Nc2cc(F)cc(F)c2F)n(-c2cc(CC(N)=O)c3ccccc3c2)n1` [Example 85, 1-(1-(4-(2-amino-2-oxoethyl)naphthalen-2-yl)-3-t-butyl-1H-pyrazol-5-yl)-3-(2,3,5-trifluorophenyl)urea], the IC50 was found to be 219 nM against B-Raf(V599E) kinase [1] and 33 nM on Abl kinase [6].
`CC(C)(C)c1cc(NC(=O)Nc2cccc(Cl)c2Cl)n(-c2cccc(-c3n[nH]c(=O)o3)c2)n1` [Example 278, 1-(3-t-butyl-1-(3-(5-oxo-4,5-dihydro-1,3,4-oxadiazol-2-yl)phenyl)-1H-pyrazol-5-yl)-3-(2,3-dichlorophenyl)urea] yielded an IC50 on B-Raf(V599E) kinase [1] of 153 nM.
On to `CC(C)(C)c1cc(NC(=O)Nc2ccc(-c3cccc4c3CNC4=O)cc2)n(-c2ccc3c(c2)CCNC3)n1` [Example 151, 1-(3-t-butyl-1-(1,2,3,4-tetrahydroisoquinolin-6-yl)-1H-pyrazol-5-yl)-3-(4-(1-oxoisoindolin-4-yl)phenyl)urea hydrochloride], for which the IC50 against KDR kinase [7] came to 3.5 nM; against Abl kinase [5], 8 nM.
Take `NC(=O)Cc1cccc(-c2ccc(C(F)(F)F)cc2NC(=O)Nc2ccc(-c3cccc4c3CNC4=O)cc2)c1` [Example 33, [1,1′-biphenyl]-2′-(3-(4-(1-oxoisoindolin-4-yl)phenyl)ureido)-4′-(trifluoromethyl)-3-acetic acid amide]: the IC50 in assay [2] is 300 nM; on KDR kinase [7] (setting [9]), 14 nM; at Abl kinase [5] (setting [8]), 250 nM.
In the case of `COc1cccc(-n2nc(C(C)(C)C)cc2NC(=O)Nc2ccccc2F)c1` [Example 235, 1-[3-t-butyl-1-(3-methoxy-phenyl)-1H-pyrazol-5-yl]-3-(2-fluorophenyl)urea], the IC50 against B-Raf(V599E) kinase [1] was 1040 nM; in assay [2] it was 120 nM; on KDR kinase [7] (setting [9]) it was 3500 nM.
For the compound `CC(C)(C)c1cc(NC(=O)Nc2cccc(Cl)c2Cl)n(-c2cccc(-c3cn[nH]c3)c2)n1` [Example 50, 1-(1-(3-(1H-pyrazol-4-yl)phenyl)-3-t-butyl-1H-pyrazol-5-yl)-3-(2,3-dichlorophenyl)urea], the IC50 was determined as 52 nM at KDR kinase [3], 168 nM against B-Raf(V599E) kinase [1], 29 nM in assay [2] and 380 nM at Abl kinase [6].
Consider `CC(C)(C)c1cc(NC(=O)Nc2cccc(Oc3cccnc3)c2)n(-c2ccc3[nH]ccc3c2)n1` [Example 116, 1-(3-t-butyl-1-(1H-indol-5-yl)-1H-pyrazol-5-yl)-3-(3-(pyridin-3-yloxy)phenyl)urea], for which the IC50 against B-Raf(V599E) kinase [4] worked out at 5.9 nM; at KDR kinase [7] (setting [9]), 5 nM; at Abl kinase [5] (setting [8]), 6.6 nM.
Regarding `CC(C)(C)c1cc(NC(=O)Nc2cccc(Oc3cccnc3)c2)n(-c2ccc3ncccc3c2)n1` [Example 55, 1-(3-t-butyl-1-(quinolin-6-yl)-1H-pyrazol-5-yl)-3-(3-(pyridin-3-yloxy)phenyl)urea], the IC50 was 5.4 nM against B-Raf(V599E) kinase [4], 130 nM in assay [2], 4 nM at KDR kinase [7] (setting [9]) and 3.5 nM at Abl kinase [5] (setting [8]).
On to `CC(C)(C)c1cc(NC(=O)Nc2cccc(Oc3cccnc3)c2)n(-c2cccc(-c3cccnc3)c2)n1` [Example 277, 1-(3-t-butyl-1-(3-(pyridin-3-yl)phenyl)-1H-pyrazol-5-yl)-3-(3-(pyridin-3-yloxy)phenyl)urea], for which the IC50 was 11 nM at B-Raf(V599E) kinase [4], 180 nM in assay [2], 10 nM at KDR kinase [7] (setting [9]) and 29 nM on Abl kinase [5] (setting [8]).
Take `CC(C)(C)c1cc(NC(=O)Nc2ccc(Cl)cc2)n(-c2cc(CNC(=O)NS(C)(=O)=O)c3ccccc3c2)n1` [Example 74, 1-{3-t-butyl-1-[1-(methanesulfonylureidoamidomethyl)naphthalen-3-yl]-1H-pyrazol-5-yl}-3-(4-chlorophenyl-1-yl)urea]: the IC50 came out at 934 nM against B-Raf(V599E) kinase [1], 2500 nM on KDR kinase [7] (setting [9]) and 2100 nM on Abl kinase [6].
Turning to `CC(C)(C)c1cc(NC(=O)Nc2cccc(Oc3cccnc3)c2)n(-c2cc(CN)c3ccccc3c2)n1` [Example 72, 1-(1-(4-(aminomethyl)naphthalen-2-yl)-3-t-butyl-1H-pyrazol-5-yl)-3-(3-(pyridin-3-yloxy)phenyl)urea], the figures for the IC50 on B-Raf(V599E) kinase [4], on KDR kinase [7] (setting [9]) and on Abl kinase [5] (setting [8]) were 4.4 nM, 8.5 nM and 2 nM, respectively.
On to `CC(C)(C)c1cc(NC(=O)Nc2cccc(Oc3cccnc3)c2)n(-c2ccc3c(c2)CC(C(N)=O)NC3)n1` (stereo not shown) [Example 179, 1-(3-t-butyl-1-(3-carbamoyl-1,2,3,4-tetrahydroisoquinolin-6-yl)-1H-pyrazol-5-yl)-3-(3-(pyridin-3-yloxy)phenyl)urea], for which the IC50 on B-Raf(V599E) kinase [4] came to 17 nM; in assay [2], 96 nM; at KDR kinase [7] (setting [9]), 6.4 nM; on Abl kinase [5] (setting [8]), 3 nM.
As for `CC(C)(C)c1cc(NC(=O)Nc2cccc(Oc3cccnc3)c2)n(-c2ccc3c(c2)CCNC3)n1` [Example 141, 1-(3-t-butyl-1-(1,2,3,4-tetrahydro-isoquinolin-6-yl)-1H-pyrazol-5-yl)-3-(3-(pyridin-3-yloxy)phenyl)urea], the IC50 is 7.5 nM at B-Raf(V599E) kinase [4], 730 nM in assay [2], 8.5 nM on KDR kinase [7] (setting [9]) and 1.5 nM at Abl kinase [5].
For the compound `CC(C)(C)c1cc(NC(=O)Nc2cccc(Oc3cccnc3)c2)n(-c2ccc3[nH]c(=O)ccc3c2)n1` [Example 156, 1-(3-t-butyl-1-(2-oxo-1,2-dihydroquinolin-6-yl)-1H-pyrazol-5-yl)-3-(3-(pyridin-3-yloxy)phenyl)urea], the IC50 against B-Raf(V599E) kinase [4] was 4.1 nM; at KDR kinase [7] (setting [9]), 3.2 nM; at Abl kinase [5] (setting [8]), 5 nM.
Consider `CC(C)(C)c1cc(NC(=O)Nc2cccc(Oc3cccnc3)c2)n(-c2ccc3c(c2)CCN3)n1` [Example 119, 1-(3-t-butyl-1-(indolin-5-yl)-1H-pyrazol-5-yl)-3-(3-(pyridin-3-yloxy)phenyl)urea], for which the IC50 on KDR kinase [3] was found to be 18 nM; against B-Raf(V599E) kinase [4], 9.1 nM; in assay [2] it was 60 nM; at Abl kinase [5] (setting [8]), 12 nM.
Take `CC(C)(C)c1cc(NC(=O)Nc2cc(F)c(F)cc2F)n(-c2cccc(-c3cccnc3)c2)n1` [Example 275, 1-(3-t-butyl-1-(3-(pyridin-3-yl)phenyl)-1H-pyrazol-5-yl)-3-(2,4,5-trifluorophenyl)urea]: the IC50 on B-Raf(V599E) kinase [1] worked out at 832 nM.
Turning to `CNC(=O)C1NCCc2cc(-n3nc(C(C)(C)C)cc3NC(=O)Nc3cccc(Oc4cccnc4)c3)ccc21` (stereo not shown) [Example 180, 1-(3-t-butyl-1-(1-(methylcarbamoyl)-1,2,3,4-tetrahydroisoquinolin-6-yl)-1H-pyrazol-5-yl)-3-(3-(pyridin-3-yloxy)phenyl)urea], the IC50 at B-Raf(V599E) kinase [4] stood at 11 nM; in assay [2], 65 nM; on KDR kinase [7] (setting [9]), 7.8 nM; at Abl kinase [5] (setting [8]), 9 nM.
`CC(C)(C)c1cc(NC(=O)Nc2ccc(F)c(F)c2F)n(-c2cc(CC(=O)NCC(O)CO)c3ccccc3c2)n1` (stereo not shown) [Example 96, 1-(3-t-butyl-1-(4-(2-(2,3-dihydroxypropyl-amino)-2-oxoethyl)naphthalen-2-yl)-1H-pyrazol-5-yl)-3-(2,3,4-trifluorophenyl)urea]: the IC50 at B-Raf(V599E) kinase [1] turned out to be 378 nM; in assay [2], 48 nM; on Abl kinase [6], 100 nM.
For `COc1cccc(-n2nc(C(C)(C)C)cc2NC(=O)Nc2cccc(F)c2F)c1` [Example 236, 1-[3-t-butyl-1-(3-methoxy-phenyl)-1H-pyrazol-5-yl]-3-(2,3-difluorophenyl)urea], the IC50 was 2050 nM on B-Raf(V599E) kinase [1], 250 nM in assay [2] and 3500 nM on KDR kinase [7] (setting [9]).
`CNC(=O)C1Cc2cc(-n3nc(C(C)(C)C)cc3NC(=O)Nc3cccc(Oc4cccnc4)c3)ccc2CN1` (stereo not shown) [Example 190, 1-(3-t-butyl-1-(3-(methylcarbamoyl)-1,2,3,4-tetrahydroisoquinolin-6-yl)-1H-pyrazol-5-yl)-3-(3-(pyridin-3-yloxy)phenyl)urea]: the IC50 in assay [2] was 78 nM; on KDR kinase [7] (setting [9]) it was 8.1 nM; at Abl kinase [5] (setting [8]) it was 4 nM.

(Values after US8163756B2 (priority 2004, dated 2012).)
